Experimental data from patent US10829796B2, “Bacteria identification and antimicrobial susceptibility test” (priority 2015, dated 2020).

Tested on: bacteria in clinical bovine mastitis milk samples
Assay: Combined bacteria identification and antimicrobial susceptibility test (colour of wells, MIC) on clinical bovine mastitis milk samples
Assay type: cell-based
Procedure: Clinical bovine mastitis milk samples were collected by a vet clinic in South Island, New Zealand. Samples were stored in the freezer for several months and shipped frozen to the testing facility. In this Example, the term “clinical” means that dairy cows had clinical symptoms of an udder infection e.g. cow behaved unusual, milk clots, swollen udder among other typical symptoms. Testing was executed in microwell plate comprising of 24 wells (3×8 wells).
In addition, 20 ul of clinical mastitis sample was added to each well with a laboratory pipette.
(§1) Abbreviations • 1. 80 ul GC+10 ul Tell: 80 ul Giolitti Cantoni base broth+10 ul Tellurite solution (1%); • 2. 80 ul TSB/Esc/Fer Cit: 80 ul Tryptic soy broth containing 0.25% Esculin and 0.125% Ammonium Ferric Citrate; • 3. 80 ul TSB/Esc/Fer Cit+10 ul Genta: 80 ul Tryptic soy broth containing 0.25% Esculin and 0.125% Ammonium Ferric Citrate+10 ul of Gentamycin solution 10 mg/ml; • 4. 80 ul McC/PR25: 80 ul MacConkey broth (single strength) containing 0.0125% phenol red; and • 5. 80 ul TSB/PR25: 80 ul Tryptic soy broth containing 0.0125% phenol red. Bacteria Identification
Columns A to C and rows 1 and 2 were used for bacteria identification. A1: coagulase positive Staph; A2: Staphylococci; B1: Strep group D; B2: Strep group D; C1: general enrichment media (gram+ and gram-bacteria); C2: coliform bacteria.
Column A3 to A8: serial dilution of benzyl penicillin as potassium. Column B3 to B8: serial dilution of ceftiofur as hydrochloride. Column C3 to C8: serial dilution of cloxacillin as sodium. Antibiotic concentrations are listed as free form ranging between 4 ug/ml to 0.05 ug/ml.
Minimum inhibitory substance concentration (MIC) is here defined as the concentration if a colour change occurs between two wells (one well remains red with drug concentration 1, the other one yellow with drug concentration 2, whereas drug concentration 1 is larger than drug concentration 2) then the MIC is the value of drug concentration 1.
Table 21 indicates the microwell plate configuration #1; Drugs: Benzylpenicillin as potassium; Cloxacillin as sodium; Ceftiofur as hydrochloride; Drug concentration in each well (A3 to C8) is based on 80 μl composition+10 μl drug solution+20 μl clinical mastitis milk sample and equivalent to listed drug concentration in μg/ml; 20 ul of clinical bovine mastitis milk sample was added to each well (A1 to C8).
In addition, each well received one drop of clinical sample from a transfer pipette which was on average about 35 mg. This was determined through weighing the well plate prior and after the addition of clinical mastitis samples. This weight was then divided by 24.
as §1, with “•” for “Abbreviations •”, “red.” for “red. Bacteria Identification”
Columns A to C and rows 1 and 2 were used for bacteria identification. A1: coagulase positive Staph; A2: Staphylococci; B1: Strep Group D; B2: -; C1: general enrichment media (gram+ and gram-); C2: coliform bacteria.
Column A3 to A8: serial dilution of benzyl penicillin as potassium. Drug concentrations given as free form ranging between 4 ug/ml to 0.05 ug/ml. Column B3 to B8: serial dilution of ceftiofur as hydrochloride. Drug concentrations given as free form ranging between 4 ug/ml to 0.05 ug/ml. Column C3 to C8: serial dilution of cloxacillin as sodium. Drug concentrations given as free form ranging between 4 ug/ml to 0.05 ug/ml.

In the case of `CO/N=C(\C(=O)N[C@@H]1C(=O)N2C(C(=O)O)=C(CSC(=O)c3ccco3)CS[C@H]12)c1csc(N)n1` [ceftiofur], the “Colour of media in each well” value (ID 1, T = 22 h, 37° C., plate configuration #1, drug 0.05 μg/ml) is reported as “yellow”, the “Colour of media in each well” value (ID 1, T = 22 h, 37° C., plate configuration #1, drug 0.1 μg/ml) is reported as “yellow” and the “Colour of media in each well” value (ID 1, T = 22 h, 37° C., plate configuration #1, drug 0.5 μg/ml) is reported as “red”. The “Colour of media in each well” value (ID 1, T = 22 h, 37° C., plate configuration #1, drug 1 μg/ml) was “red”, the “Colour of media in each well” value (ID 1, T = 22 h, 37° C., plate configuration #1, drug 2 μg/ml) was “red” and the “Colour of media in each well” value (ID 1, T = 22 h, 37° C., plate configuration #1, drug 4 μg/ml) was “red”. For the same compound, the “Colour of media in each well” value (ID 2, T = 48 h, 37° C., plate configuration #1, drug 0.05 μg/ml) was “yellow”, the “Colour of media in each well” value (ID 2, T = 48 h, 37° C., plate configuration #1, drug 0.1 μg/ml) was “yellow” and the “Colour of media in each well” value (ID 2, T = 48 h, 37° C., plate configuration #1, drug 0.5 μg/ml) was “yellow”. The “Colour of media in each well” value (ID 2, T = 48 h, 37° C., plate configuration #1, drug 1 μg/ml) was “red”, the “Colour of media in each well” value (ID 2, T = 48 h, 37° C., plate configuration #1, drug 2 μg/ml) was “red” and the “Colour of media in each well” value (ID 2, T = 48 h, 37° C., plate configuration #1, drug 4 μg/ml) was “red”. For the same compound, the “Colour of media in each well” value (ID 3, T = 22 h, 37° C., plate configuration #1, drug 0.05 μg/ml) was “red”, the “Colour of media in each well” value (ID 3, T = 22 h, 37° C., plate configuration #1, drug 0.1 μg/ml) was “yellow” and the “Colour of media in each well” value (ID 3, T = 22 h, 37° C., plate configuration #1, drug 0.5 μg/ml) was “yellow”. The “Colour of media in each well” value (ID 3, T = 22 h, 37° C., plate configuration #1, drug 1 μg/ml) was “red”, the “Colour of media in each well” value (ID 3, T = 22 h, 37° C., plate configuration #1, drug 2 μg/ml) was “red” and the “Colour of media in each well” value (ID 3, T = 22 h, 37° C., plate configuration #1, drug 4 μg/ml) was “red”. For the same compound, the “Colour of media in each well” value (ID 3, T = 23 h, 37° C., Table 34, drug 0.05 μg/ml) was “red”, the “Colour of media in each well” value (ID 3, T = 23 h, 37° C., Table 34, drug 0.1 μg/ml) was “yellow” and the “Colour of media in each well” value (ID 3, T = 23 h, 37° C., Table 34, drug 0.5 μg/ml) was “yellow”. For the same compound, the “Colour of media in each well” value (ID 3, T = 23 h, 37° C., Table 34, drug 1 μg/ml) was “red”, the “Colour of media in each well” value (ID 3, T = 23 h, 37° C., Table 34, drug 2 μg/ml) was “red” and the “Colour of media in each well” value (ID 3, T = 23 h, 37° C., Table 34, drug 4 μg/ml) was “red”. For the same compound, the “Colour of media in each well” value (ID 3, T~7 h, 37° C., Table 34, drug 0.05 μg/ml) was “red”, the “Colour of media in each well” value (ID 3, T~7 h, 37° C., Table 34, drug 0.1 μg/ml) was “red” and the “Colour of media in each well” value (ID 3, T~7 h, 37° C., Table 34, drug 0.5 μg/ml) was “red”. For the same compound, the “Colour of media in each well” value (ID 3, T~7 h, 37° C., Table 34, drug 1 μg/ml) was “red”, the “Colour of media in each well” value (ID 3, T~7 h, 37° C., Table 34, drug 2 μg/ml) was “red” and the “Colour of media in each well” value (ID 3, T~7 h, 37° C., Table 34, drug 4 μg/ml) was “red”. The “Colour of media in each well” value (ID 3, T~11 h, 37° C., Table 34, drug 0.05 μg/ml) was “red”, the “Colour of media in each well” value (ID 3, T~11 h, 37° C., Table 34, drug 0.1 μg/ml) was “red” and the “Colour of media in each well” value (ID 3, T~11 h, 37° C., Table 34, drug 0.5 μg/ml) was “red”. For the same compound, the “Colour of media in each well” value (ID 3, T~11 h, 37° C., Table 34, drug 1 μg/ml) was “red”, the “Colour of media in each well” value (ID 3, T~11 h, 37° C., Table 34, drug 2 μg/ml) was “red” and the “Colour of media in each well” value (ID 3, T~11 h, 37° C., Table 34, drug 4 μg/ml) was “red”. For the same compound, the “Colour of media in each well” value (ID 4, T = 22 h, 37° C., plate configuration #1, drug 0.05 μg/ml) was “yellow”, the “Colour of media in each well” value (ID 4, T = 22 h, 37° C., plate configuration #1, drug 0.1 μg/ml) was “yellow” and the “Colour of media in each well” value (ID 4, T = 22 h, 37° C., plate configuration #1, drug 0.5 μg/ml) was “orange”. For the same compound, the “Colour of media in each well” value (ID 4, T = 22 h, 37° C., plate configuration #1, drug 1 μg/ml) was “red”, the “Colour of media in each well” value (ID 4, T = 22 h, 37° C., plate configuration #1, drug 2 μg/ml) was “red” and the “Colour of media in each well” value (ID 4, T = 22 h, 37° C., plate configuration #1, drug 4 μg/ml) was “red”. For the same compound, the “Colour of media in each well” value (ID 5, T = 23 h, 37° C., plate configuration #2, drug 0.05 μg/ml) was “yellow”, the “Colour of media in each well” value (ID 5, T = 23 h, 37° C., plate configuration #2, drug 0.1 μg/ml) was “yellow” and the “Colour of media in each well” value (ID 5, T = 23 h, 37° C., plate configuration #2, drug 0.5 μg/ml) was “red”. For the same compound, the “Colour of media in each well” value (ID 5, T = 23 h, 37° C., plate configuration #2, drug 1 μg/ml) was “red”, the “Colour of media in each well” value (ID 5, T = 23 h, 37° C., plate configuration #2, drug 2 μg/ml) was “red” and the “Colour of media in each well” value (ID 5, T = 23 h, 37° C., plate configuration #2, drug 4 μg/ml) was “red”. For the same compound, the “Colour of media in each well” value (ID 5 to 8, T = 0 h (prior incubation, reference), plate configuration #2, drug 0.05 μg/ml) was “red”, the “Colour of media in each well” value (ID 5 to 8, T = 0 h (prior incubation, reference), plate configuration #2, drug 0.1 μg/ml) was “red” and the “Colour of media in each well” value (ID 5 to 8, T = 0 h (prior incubation, reference), plate configuration #2, drug 0.5 μg/ml) was “red”. For the same compound, the “Colour of media in each well” value (ID 5 to 8, T = 0 h (prior incubation, reference), plate configuration #2, drug 1 μg/ml) was “red”.
